Article PMC3362318 (Invertebrate Neuroscience, 2012)

Assays:
Hco-L-AChR2 = molecular target: T1, Hco-L-AChR2 (Haemonchus contortus, UniProt D6MYE9+D6MYF3+D6MYF4); experiment: two-electrode voltage clamp, Xenopus oocytes, peak current; type: cell-based; details: agonist; -60 mV, 1 mM external CaCl2, pH 7.3, BAPTA-AM treated
T1 sequence (D6MYE9 21-498): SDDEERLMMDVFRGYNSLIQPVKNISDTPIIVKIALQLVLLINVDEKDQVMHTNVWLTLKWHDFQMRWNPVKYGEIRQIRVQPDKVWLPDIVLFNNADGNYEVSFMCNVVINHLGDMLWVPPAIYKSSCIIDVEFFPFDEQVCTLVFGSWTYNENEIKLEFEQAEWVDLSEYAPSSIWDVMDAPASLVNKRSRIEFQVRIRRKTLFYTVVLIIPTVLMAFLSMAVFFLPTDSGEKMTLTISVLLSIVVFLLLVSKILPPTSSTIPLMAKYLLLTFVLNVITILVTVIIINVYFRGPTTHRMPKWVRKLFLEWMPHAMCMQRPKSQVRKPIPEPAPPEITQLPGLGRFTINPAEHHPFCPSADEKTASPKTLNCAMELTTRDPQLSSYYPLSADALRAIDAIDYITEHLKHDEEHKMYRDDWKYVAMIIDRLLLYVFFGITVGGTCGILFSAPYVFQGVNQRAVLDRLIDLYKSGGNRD
T1 sequence (D6MYF3 20-512): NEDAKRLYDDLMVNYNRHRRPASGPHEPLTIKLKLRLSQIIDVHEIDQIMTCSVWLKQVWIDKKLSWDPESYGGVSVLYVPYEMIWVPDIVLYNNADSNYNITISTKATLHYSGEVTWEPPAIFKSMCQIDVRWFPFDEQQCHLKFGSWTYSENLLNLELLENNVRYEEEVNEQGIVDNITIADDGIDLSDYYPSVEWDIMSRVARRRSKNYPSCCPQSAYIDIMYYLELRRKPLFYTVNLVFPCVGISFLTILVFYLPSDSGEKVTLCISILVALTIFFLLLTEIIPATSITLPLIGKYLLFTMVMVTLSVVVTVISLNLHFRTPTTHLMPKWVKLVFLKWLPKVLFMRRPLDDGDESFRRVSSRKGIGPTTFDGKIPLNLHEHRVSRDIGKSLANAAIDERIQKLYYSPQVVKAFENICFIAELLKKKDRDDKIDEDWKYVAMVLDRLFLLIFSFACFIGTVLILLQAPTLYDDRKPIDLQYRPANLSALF
T1 sequence (D6MYF4 22-504): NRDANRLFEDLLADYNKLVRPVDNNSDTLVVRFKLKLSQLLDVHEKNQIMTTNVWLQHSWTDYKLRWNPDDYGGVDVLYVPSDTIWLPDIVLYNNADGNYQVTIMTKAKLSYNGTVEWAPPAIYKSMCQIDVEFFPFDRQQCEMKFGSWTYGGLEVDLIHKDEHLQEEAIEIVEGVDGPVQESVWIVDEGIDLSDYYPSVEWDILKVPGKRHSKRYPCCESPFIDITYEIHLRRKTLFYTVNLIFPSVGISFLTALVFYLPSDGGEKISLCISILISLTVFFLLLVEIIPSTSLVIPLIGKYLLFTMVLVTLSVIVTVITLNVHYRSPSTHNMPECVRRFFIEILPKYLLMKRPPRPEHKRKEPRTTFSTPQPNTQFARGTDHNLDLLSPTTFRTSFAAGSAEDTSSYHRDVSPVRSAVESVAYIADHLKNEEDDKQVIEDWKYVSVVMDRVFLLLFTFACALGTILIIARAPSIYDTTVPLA

Hco-L-AChR1 [1] = molecular target: T2, Hco-L-AChR1 (Haemonchus contortus, UniProt A9XX24+D6MYE9+D6MYF3+D6MYF4); experiment: two-electrode voltage clamp, Xenopus oocytes, dose-response; type: cell-based
Hco-L-AChR1 [2] = molecular target: T2, Hco-L-AChR1; details: agonist; 30 μM; -60 mV, 1 mM external CaCl2, pH 7.3, BAPTA-AM treated

T2 sequence (A9XX24 19-536, one chain of several): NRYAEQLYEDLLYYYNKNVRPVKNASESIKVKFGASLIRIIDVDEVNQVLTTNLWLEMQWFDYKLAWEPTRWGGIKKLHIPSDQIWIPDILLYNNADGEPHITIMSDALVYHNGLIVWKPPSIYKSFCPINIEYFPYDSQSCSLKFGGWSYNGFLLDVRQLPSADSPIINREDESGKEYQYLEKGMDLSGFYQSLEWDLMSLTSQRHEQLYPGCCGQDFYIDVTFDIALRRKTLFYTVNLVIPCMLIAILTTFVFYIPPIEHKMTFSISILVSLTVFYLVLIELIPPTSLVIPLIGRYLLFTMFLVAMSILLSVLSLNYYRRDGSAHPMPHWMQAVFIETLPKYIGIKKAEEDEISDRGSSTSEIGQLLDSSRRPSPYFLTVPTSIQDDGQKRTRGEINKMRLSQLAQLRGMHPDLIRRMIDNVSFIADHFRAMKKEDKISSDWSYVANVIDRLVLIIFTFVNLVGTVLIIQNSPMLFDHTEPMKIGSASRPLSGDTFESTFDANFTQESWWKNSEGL

Row | SMILES | two-electrode voltage clamp, Xenopus oocytes, peak current (Hco-L-AChR2) | EC50 (Hco-L-AChR1 [1]) | two-electrode voltage clamp, Xenopus oocytes, peak current (Hco-L-AChR1 [2])
1 | c1ccc([C@H]2CN3CCSC3=N2)cc1 [Lev, levamisole] | Hco-L-AChR2 potency series was: pyrantel > acetylcholine > nicotine > levamisole | 6.08 ± 0.3 µM | 
2 | CN1CCCN=C1/C=C/c1cccs1 [Pyr, pyrantel] | Hco-L-AChR2 potency series was: pyrantel > acetylcholine > nicotine > levamisole |  | levamisole > acetylcholine > pyrantel > nicotine for the Hco-L-AChR1
3 | CN1CCC[C@H]1c1cccnc1 [Nic, nicotine] | Hco-L-AChR2 potency series was: pyrantel > acetylcholine > nicotine > levamisole |  | 
4 | C[N+](C)(CCOc1ccccc1)Cc1ccccc1 [Beph, bephenium] |  | 7.7 ± 0.6 µM | 
